# “Also recorded” adds a separate entry of the source.
# Assays:
# IMR-90 = assay: Alcohol toxicity, MTT cell viability assay, IMR-90; type: cell-based, human; settings: 24 h, vs untreated control
# Experimental: (§1) MTT cell viability assay.
# (§2) Alcohol toxicity is disclosed in Table 3: Alcohol toxicity was assessed by exposure of the cells to a given concentration of alcohol to a limit of 3 wt %. Cell activity was determined after 24 h and compared to an untreated control. Data is reported as percentage remaining cell activity (vs control) in 3% alcohol in three individual cell lines. The greater the percentage of remaining activity, the lower the toxicity of the alcohol to the cell line. Thus, Hep G2 cells exposed to 3 wt % 2-ethylhexanol retained 91.2% activity, whereas Hep G2 cells exposed to 3 wt % 2-ethylbutanol retained only 74.6% activity. Thus 2-ethylhexanol is less toxic to Hep G2 cells than 2-ethylbutanol.
# Hep G2 = assay: Alcohol toxicity, MTT cell viability assay, Hep G2; type: cell-based, human; settings: 24 h, vs untreated control
# Experimental: as §1, §2
# LLC-PK1 = assay: Alcohol toxicity, MTT cell viability assay, LLC-PK1; type: cell-based, porcine; settings: 24 h, vs untreated control
# Experimental: as §1, §2
# [1] = Solubility of API/dyes with ACA monomers (visual); type: physicochemical; settings: typically 5.0 mg in 100 ul monomer, 24 h; for Solubility of CBZ in the monomer (blend): cabazitaxel
# Text: Solubility and degree of polymerization were monitored visually.
# Where the result is given as ‘soluble’, the API was soluble in the choose monomer with no visual residue, and there can be used as a combination to prepare API loaded nanoparticles. If the results are given as insoluble or partially, it is an indication that this combination cannot be used to prepared API loaded nanoparticles.
# [2] = tested on: Hep G2 cell line and LLC-PK1
# Experimental: Cell lines: The cell lines were used for determining alcohol cytotoxicity Hep G2 (Human liver cancer cell line), LLC-PK1 (Porcine kidney cell line) and IMR-90 (Human lung fibroblast cell line). All medium was fortified with 10% (w/v) fetal calf serum albumin (Sigma) and 100 units/ml penicillin/streptomycin (PenStrep®, Sigma). All cell lines were obtained from ATCC and were routinely tested for mycoplasma. Cells growing in 24- or 96-well plates were incubated with serial dilutions of the alcohol for 24 h, at 37° C. in an atmosphere of 5% CO2. The toxicity was assessed the commonly used MTT (3-(4,5-dimethylthiazol-2-yl)-2,5-diphenyltetrazolium bromide) cell viability assay.
# MTT cell viability assay. The cells were incubated for 24 with the different nanoparticles/substances. The cell medium was then aspirated and exchanged with 100 μl of medium containing a final concentration of 250 μg MTT/ml. The incubation was continued for 3 h at 37° C. for formation of the formazan-particles, which were dissolved in DMSO with 1% (v/v) NH4Cl. The absorbance was read in a plate reader (Biosys Ltd, Essex, UK) at 570 nm, and background from absorbance at 650 nm was subtracted.
Solubility of CBZ in the monomer (blend) [1],Solubility of Alpelisib in the monomer (blend) [1],Solubility of Mupirocin in the monomer (blend) [1],Solubility of Oxaliplatin in the monomer (blend) [1],Compound,"Cell activity remaining at 3.00 wt % alcohol (%), IMR-90 (IMR-90)","Cell activity remaining at 3.00 wt % alcohol (%), Hep G2 (Hep G2)","Cell activity remaining at 3.00 wt % alcohol (%), LLC-PK1 (LLC-PK1)",also measured
,,,,"1-butanol [1-butanol (control), reference compound]",59.7%,61.8%,81.8%,
Soluble,Soluble,Insoluble,Insoluble,"C=C(C#N)C(=O)OCCCCCCC [1-HPCA, 1-heptyl cyanoacrylate]",,,,Solubility of Belinostat in the monomer (blend) [1]: Soluble; Solubility of Docetaxil in the monomer (blend) [1]: Soluble
Soluble,Soluble,Insoluble,Insoluble,"C=C(C#N)C(=O)OCCCCC [1-PCA, 1-pentyl cyanoacrylate]",,,,
,,,,CCCCCCCO [1-heptanol],58.3%,72.3%,61.8%,
,,,,"CCCCCCCCO [1-octanol (control), 1-octanol, reference compound]",0.9%,69.8%,1.8%,
,,,,CCCCCO [1-pentanol],57.1%,63.3%,83.4%,
Soluble,Soluble,Soluble; also recorded: able to dissolve,Insoluble,"C=C(C#N)C(=O)OC(C)CCCCC (stereo not drawn) [2-HPCA, 2-heptyl cyanoacrylate]",,,,
dissolves,dissolves,,dissolves,"C=C(C#N)C(=O)OCCc1ccccc1 [2-PECA, 2-phenylethyl cyanoacrylate]",,,,
,,,,"CCC(CC)CO [2-ethylbutanol (control), 2-ethylbutanol, reference compound]",69.1%,74.6%,86.2%,
,,,,CCCCC(CC)CO (stereo not drawn) [2-ethylhexanol],7.9%,91.2%,79.8%,
,,,,CCCCCC(C)O (stereo not drawn) [2-heptanol],50.7%,73.9%,81.1%,
,,,,OCCc1ccccc1 [2-phenylethanol],0.6%,0.9%,1.1%,Toxicity at 3% alcohol [2]: significant toxicity
Soluble,Soluble,Insoluble,Insoluble,"C=C(C#N)C(=O)OCCC(C)(C)C [3,3-DMBCA, 3,3-dimethyl-1 butyl cyanoacrylate]",,,,
,,,,"CC(C)(C)CCO [3,3-dimethylbutanol]",81.7%,84.8%,98.2%,
Soluble,Soluble,Partially,Insoluble,"C=C(C#N)C(=O)OC(CC)CCCC (stereo not drawn) [3-HPCA, 3-heptyl cyanoacrylate]",,,,
Soluble,Soluble,Insoluble,Insoluble,"C=C(C#N)C(=O)OCCC(C)C [3-MBCA, 3-methylbutyl cyanoacrylate]",,,,
Soluble,Soluble,Soluble; also recorded: able to dissolve,Insoluble,"C=C(C#N)C(=O)OC(CC)CC [3-PCA, 3-pentyl cyanoacrylate]",,,,
,,,,CCCCC(O)CC (stereo not drawn) [3-heptanol],81.7%,81.4%,96.4%,
,,,,CC(C)CCO [3-methylbutanol],67.6%,72.4%,94.3%,
,,,,CCC(O)CC [3-pentanol],84.6%,89.7%,78.6%,
,,,,"C=C(C#N)C(=O)OCC(CC)CC [EBCA (control), 2-ethylbutyl cyanoacrylate, reference compound]",,,,Solubility of Belinostat in the monomer (blend) [1]: not
,,insoluble,,"C=C(C#N)C(=O)OCCCCCCCC [OCA (control), 1-octyl cyanoacrylate, reference compound]",,,,

# — US12357581B2, “Nanoparticles comprising copolymeric or homopolymeric compounds which comprise cyanoacrylate subunits” (SINTEF TTO AS, priority 2019, dated 2025)
